Test results as given in publication PMC6479731 (ACS Synthetic Biology, 2019).

Tested on: Cn Mdh2 CT4–1
Conditions: read-out: Km,MeOH; 1 mM NAD+, 100 mM glycine-NaOH pH 9.5, 50 mM MgSO4, 37 °C, no activator protein

- Km: 88.8 ± 7.8 mM
SMILES: CO [methanol]
